Measured values published in patent US9303012B2, “Pyridine-2-amides useful as CB2 agonists” (Hoffmann-La Roche Inc., priority 2012, dated 2016).

Key:
human CB2 receptors = human CB2 receptors (Homo sapiens (Human), UniProt P34972); experiment: functional cAMP assay, CHO cells expressing human CB2 receptors; assay type: cell-based
Experimental: (§1) CHO cells expressing human CB1 or CB2 receptors are seeded 17-24 hours prior to the experiment 50.000 cells per well in a black 96 well plate with flat clear bottom (Corning Costar #3904) in DMEM (Invitrogen No. 31331), 1×HT supplement, with 10% fetal calf serum and incubated at 5% CO2 and 37° C. in a humidified incubator. The growth medium was exchanged with Krebs Ringer Bicarbonate buffer with 1 mM IBMX and incubated at 30° C. for 30 min. Compounds were added to a final assay volume of 100 μl and incubated for 30 min at 30° C. Using the cAMP-Nano-TRF detection kit the assay (Roche Diagnostics) was stopped by the addition of 50 μl lysis reagent (Tris, NaCl, 1.5% Triton X100, 2.5% NP40, 10% NaN3) and 50 μl detection solutions (20 μM mAb Alexa700-cAMP 1:1, and 48 μM Ruthenium-2-AHA-cAMP) and shaken for 2 h at room temperature. The time-resolved energy transfer is measured by a TRF reader (Evotec Technologies GmbH), equipped with a ND:YAG laser as excitation source. The plate is measured twice with the excitation at 355 nm and at the emission with a delay of 100 ns and a gate of 100 ns, total exposure time 10 s at 730 (bandwidth 30 nm) or 645 nm (bandwidth 75 nm), respectively. The FRET signal is calculated as follows: FRET=T730-Alexa730-P(T645-B645) with P=Ru730-B730/Ru645-B645, where T730 is the test well measured at 730 nM, T645 is the test well measured at 645 nm, B730 and B645 are the buffer controls at 730 nm and 645 nm, respectively. cAMP content is determined from the function of a standard curve spanning from 10 μM to 0.13 nM cAMP.
(§2) EC50 values were determined using Activity Base analysis (ID Business Solution, Limited). The EC50 values for a wide range of cannabinoid agonists generated from this assay were in agreement with the values published in the scientific literature.

human CB1 receptors = human CB1 receptors (Homo sapiens (Human), UniProt P21554); experiment: functional cAMP assay, CHO cells expressing human CB1 receptors; assay type: cell-based
human CB1 receptors, sequence (P21554 whole entry): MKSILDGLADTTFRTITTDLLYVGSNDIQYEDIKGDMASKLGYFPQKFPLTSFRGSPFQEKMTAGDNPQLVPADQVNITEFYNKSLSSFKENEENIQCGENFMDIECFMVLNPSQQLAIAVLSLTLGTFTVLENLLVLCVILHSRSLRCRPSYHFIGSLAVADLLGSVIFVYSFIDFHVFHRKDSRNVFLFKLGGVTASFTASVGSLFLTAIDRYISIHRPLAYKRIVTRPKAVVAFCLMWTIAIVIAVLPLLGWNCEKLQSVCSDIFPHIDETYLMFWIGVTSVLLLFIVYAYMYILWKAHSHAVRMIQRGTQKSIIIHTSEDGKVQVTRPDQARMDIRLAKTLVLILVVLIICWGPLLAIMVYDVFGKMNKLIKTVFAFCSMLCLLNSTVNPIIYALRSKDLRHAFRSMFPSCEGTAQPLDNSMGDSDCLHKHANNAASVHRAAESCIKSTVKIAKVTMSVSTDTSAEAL
Experimental: as §1, §2

human CB2 receptors, sequence (P34972 whole entry): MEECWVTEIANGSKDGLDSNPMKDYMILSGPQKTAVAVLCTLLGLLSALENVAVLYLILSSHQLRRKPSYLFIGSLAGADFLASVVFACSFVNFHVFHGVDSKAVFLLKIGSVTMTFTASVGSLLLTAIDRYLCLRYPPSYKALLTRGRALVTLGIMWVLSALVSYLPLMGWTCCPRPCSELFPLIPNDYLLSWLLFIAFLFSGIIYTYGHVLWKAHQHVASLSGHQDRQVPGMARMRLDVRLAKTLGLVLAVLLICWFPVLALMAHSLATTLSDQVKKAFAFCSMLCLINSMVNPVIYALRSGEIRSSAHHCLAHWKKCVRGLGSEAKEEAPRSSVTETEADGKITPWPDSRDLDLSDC

Structure (SMILES)	EC50 (human CB2 receptors) [nM]	EC50 (human CB1 receptors) [nM]
CC(C)(C)N(CCC(N)=O)C(=O)c1ccc(N2CC(F)(F)C2)c(OCC2CC2)n1 [Example 72, 6-Cyclopropylmethoxy-5-(3,3-difluoro-azetidin-1-yl)-pyridine-2-carboxylic acid tert-butyl-(2-carbamoyl-ethyl)-amide]	664	> 10000
CNC(=O)CN(C(=O)c1ccc(N2CC(F)(F)C2)c(OCC2CC2)n1)C(C)(C)C [Example 26, 6-Cyclopropylmethoxy-5-(3,3-difluoro-azetidin-1-yl)-pyridine-2-carboxylic acid tert-butyl-methylcarbamoylmethyl-amide]	306	> 10000
NC(=O)[C@@H]1CSCN1C(=O)c1ccc(N2CC(F)(F)C2)c(OCC2CC2)n1 [Example 112, (−)-3-[6-Cyclopropylmethoxy-5-(3,3-difluoro-azetidin-1-yl)-pyridine-2-carbonyl]-thiazolidine-4-carboxylic acid amide]	19.8	> 10000
CC1(C)COCN1C(=O)c1ccc(C2CC2)c(Cc2ccc(F)cc2)n1 [Example 44, [5-Cyclopropyl-6-(4-fluoro-benzyl)-pyridin-2-yl]-(4,4-dimethyl-oxazolidin-3-yl)-methanone]	3.1	408
CC1(O)C[C@@H](C(N)=O)N(C(=O)c2ccc(N3CC(F)(F)C3)c(OCC3CC3)n2)C1 (stereo partly drawn) [Example 132, (2S)-1-[6-(Cyclopropylmethoxy)-5-(3,3-difluoroazetidin-1-yl)pyridine-2-carbonyl]-4-hydroxy-4-methylpyrrolidine-2-carboxamide]	30.1	> 10000
NC(=O)C1CSCCN1C(=O)c1ccc(C2CC2)c(OCC2CC2)n1 (stereo not shown) [Example 89, 4-(5-Cyclopropyl-6-cyclopropylmethoxy-pyridine-2-carbonyl)-thiomorpholine-3-carboxylic acid amide]	318	> 10000
CC1(C)CC[C@@H](C(N)=O)N1C(=O)c1ccc(N2CC(F)(F)C2)c(OCC2CC2)n1 [Example 121, (S)-1-[6-Cyclopropylmethoxy-5-(3,3-difluoro-azetidin-1-yl)-pyridine-2-carbonyl]-5,5-dimethyl-pyrrolidine-2-carboxylic acid amide]	112	> 10000
NC(=O)[C@@H]1CC(F)(F)CN1C(=O)c1ccc(C2(F)COC2)c(OCC2CC2)n1 [Example 134, (2S)-1-[6-(Cyclopropylmethoxy)-5-(3-fluorooxetan-3-yl)pyridine-2-carbonyl]-4,4-difluoropyrrolidine-2-carboxamide]	52.2	> 10000
CN(C(=O)c1ccc(N2CC(F)(F)C2)c(OCC2CC2)n1)C1(C(F)(F)F)CC1 [Example 16, 6-Cyclopropylmethoxy-5-(3,3-difluoro-azetidin-1-yl)-pyridine-2-carboxylic acid methyl-(1-trifluoromethyl-cyclopropyl)-amide]	8	> 10000
Cc1nnc(CN(C(=O)c2ccc(N3CC(F)(F)C3)c(OCC3CC3)n2)C2CC2)o1 [Example 81, 6-Cyclopropylmethoxy-5-(3,3-difluoro-azetidin-1-yl)-pyridine-2-carboxylic acid cyclopropyl-(5-methyl-[1,3,4]oxadiazol-2-ylmethyl)-amide]	652	> 10000
CC1(C)COCCN1C(=O)c1ccc(N2CC(F)(F)C2)c(OCC2CC2)n1 [Example 17, [6-Cyclopropylmethoxy-5-(3,3-difluoro-azetidin-1-yl)-pyridin-2-yl]-(3,3-dimethyl-morpholin-4-yl)-methanone]	5.2	> 10000
O=C(c1ccc(N2CC(F)(F)C2)c(OCC2CC2)n1)N1CC(F)(CO)C1 [Example 148, [6-(Cyclopropylmethoxy)-5-(3,3-difluoroazetidin-1-yl)-2-pyridyl]-[3-fluoro-3-(hydroxymethyl)azetidin-1-yl]methanone]	451	> 10000
CC1(C)C[C@@H](C(N)=O)N(C(=O)c2ccc(N3CC(F)(F)C3)c(OCC3CC3)n2)C1 [Example 78, (−)-1-[6-Cyclopropylmethoxy-5-(3,3-difluoro-azetidin-1-yl)-pyridine-2-carbonyl]-4,4-dimethyl-pyrrolidine-2-carboxylic acid amide]	1.2	> 10000
CC(=O)N1CCC(N(C(=O)c2ccc(N3CC(F)(F)C3)c(OCC3CC3)n2)C2CC2)CC1 [Example 50, 6-Cyclopropylmethoxy-5-(3,3-difluoro-azetidin-1-yl)-pyridine-2-carboxylic acid (1-acetyl-piperidin-4-yl)-cyclopropyl-amide]	237	> 10000
NC(=O)[C@@H]1CSCCN1C(=O)c1ccc(C2CC2)c(OCC2CC2)n1 [Example 93, (−)-4-(5-Cyclopropyl-6-cyclopropylmethoxy-pyridine-2-carbonyl)-thiomorpholine-3-carboxylic acid amide]	327	> 10000
O=C(c1ccc(N2CC(F)(F)C2)c(OCC2CC2)n1)N1CCC(CO)(C(F)(F)F)C1 (stereo not shown) [Example 137, [6-(Cyclopropylmethoxy)-5-(3,3-difluoroazetidin-1-yl)pyridin-2-yl]-[3-(hydroxymethyl)-3-(trifluoromethyl)pyrrolidin-1-yl]methanone]	53.8	> 10000
CC(C)CS(=O)(=O)c1nc(C(=O)N2CCCC2(C)C)ccc1C1CC1 [Example 30, [5-Cyclopropyl-6-(2-methyl-propane-1-sulfonyl)-pyridin-2-yl]-(2,2-dimethyl-pyrrolidin-1-yl)-methanone]	34.5	> 10000
NC(=O)[C@@H]1CC(F)(F)CN1C(=O)c1ccc(N2CC(F)(F)C2)c(OCC2CC2)n1 [Example 60, (S)-1-[6-Cyclopropylmethoxy-5-(3,3-difluoro-azetidin-1-yl)-pyridine-2-carbonyl]-4,4-difluoro-pyrrolidine-2-carboxylic acid amide]	3.08	> 10000
NC(=O)[C@H]1CS(=O)(=O)CN1C(=O)c1ccc(C2CC2)c(OCC2CC2)n1 [Example 117, (+)-3-(5-Cyclopropyl-6-cyclopropylmethoxy-pyridine-2-carbonyl)-1,1-dioxo-1λ^6-thiazolidine-4-carboxylic acid amide]	485	> 10000
CC(C)(C)OC(=O)N1CCC2(CCCN2C(=O)c2ccc(C3CC3)c(Cc3ccc(F)cc3)n2)CC1 [Example 111, 1-[5-Cyclopropyl-6-(4-fluoro-benzyl)-pyridine-2-carbonyl]-1,8-diaza-spiro[4.5]decane-8-carboxylic acid tert-butyl ester]	8	2780
COCC(C)(C)N(C)C(=O)c1ccc(N2CC(F)(F)C2)c(OCC2CC2)n1 [Example 9, 6-Cyclopropylmethoxy-5-(3,3-difluoro-azetidin-1-yl)-pyridine-2-carboxylic acid (2-methoxy-1,1-dimethyl-ethyl)-methyl-amide]	3.8	> 10000
O=C(c1ccc(N2CC(F)(F)C2)c(OCC2CC2)n1)N1CCC(C(O)C(F)(F)F)C1 (stereo not shown) [Example 136, [6-(Cyclopropylmethoxy)-5-(3,3-difluoroazetidin-1-yl)pyridin-2-yl]-[3-(2,2,2-trifluoro-1-hydroxyethyl)pyrrolidin-1-yl]methanone]	32.9	> 10000
COCCN(C(=O)c1ccc(N2CC(F)(F)C2)c(OCC2CC2)n1)C(C)(C)C [Example 20, 6-Cyclopropylmethoxy-5-(3,3-difluoro-azetidin-1-yl)-pyridine-2-carboxylic acid tert-butyl-(2-methoxy-ethyl)-amide]	5.3	> 10000
CC(C)CS(=O)(=O)c1nc(C(=O)N2COCC2(C)C)ccc1C1CC1 [Example 31, [5-Cyclopropyl-6-(2-methyl-propane-1-sulfonyl)-pyridin-2-yl]-(4,4-dimethyl-oxazolidin-3-yl)-methanone]	82.1	> 10000
O=C(c1ccc(N2CC(F)(F)C2)c(OCC2CC2)n1)N1CC2(CC(O)CO2)C1 (stereo not shown) [Example 83, [6-Cyclopropylmethoxy-5-(3,3-difluoro-azetidin-1-yl)-pyridin-2-yl]-(7-hydroxy-5-oxa-2-aza-spiro[3.4]oct-2-yl)-methanone]	760	> 10000
CN1C(=O)CN(C(=O)c2ccc(N3CC(F)(F)C3)c(OCC3CC3)n2)[C@@H]1C(C)(C)C [Example 56, (R)-2-tert-Butyl-1-[6-cyclopropylmethoxy-5-(3,3-difluoro-azetidin-1-yl)-pyridine-2-carbonyl]-3-methyl-imidazolidin-4-one]	36.9	> 10000
